Earlier results in PubChem BioAssay AID1259409 (Chemical Carcinogenesis Research Information System (CCRIS), 2018).

Test system: rodent chemically induced tumor inhibition, incidence and multiplicity
Assay: CCRIS tumor inhibitor studies
Details: Route [Inhibitor]: DERMAL, Species: MOUSE, Target Tissue: Type of Lesion: SKIN: PAPILLOMA, Promoter: 12-O-TETRADECANOYLPHORBOL-13-ACETATE, 16561-29-8

O=c1cc(-c2ccccc2)oc2c1ccc1ccccc12
tumour outcome (control, treated, inhibition, significance) (Carcinogen: 7,14-DIMETHYLBENZO[A,H]ANTHRACENE, 35335-07-0, Dose [Inhibitor]: 0, 370 NMOL IN 0.2 ML ACETONE APPLIED 5 MIN PRIOR TO CARCINOGEN (STUDY DURATION: 21 WK), Strain/Sex: SENCAR/FEMALE, Dose [Carcinogen]: 47.5 NMOL IN 0.2 ML ACETONE ONCE): 97%, 96%, 1%, not calculated | tumour outcome (control, treated, inhibition, significance) (Carcinogen: 7,14-DIMETHYLBENZO[A,H]ANTHRACENE, 35335-07-0, Dose [Inhibitor]: 0, 3700 NMOL IN 0.2 ML ACETONE APPLIED 5 MIN PRIOR TO CARCINOGEN (STUDY DURATION: 21 WK), Strain/Sex: SENCAR/FEMALE, Dose [Carcinogen]: 47.5 NMOL IN 0.2 ML ACETONE ONCE): 97%, 97%, 0% | tumour outcome (control, treated, inhibition, significance) (Carcinogen: 7-(BROMOMETHYL)BENZ[A]ANTHRACENE, 24961-39-3, Dose [Inhibitor]: 100 UG IN 0.2 ML ACETONE ONCE 5 MIN BEFORE CARCINOGEN TREATMENT (STUDY DURATION: 31 WK), Strain/Sex: CD-1/FEMALE, Dose [Carcinogen]: 3125 NMOL IN 0.2 ML ACETONE ONCE): 55%, 30%, 45%, not calculated | tumour outcome (control, treated, inhibition, significance) (Carcinogen: 7-BROMOMETHYL-12-METHYLBENZ[A]ANTHRACENE, 16238-56-5, Dose [Inhibitor]: 100 UG IN 0.2 ML ACETONE ONCE 5 MIN BEFORE CARCINOGEN TREATMENT (STUDY DURATION: 31 WK), Strain/Sex: CD-1/FEMALE, Dose [Carcinogen]: 600 NMOL IN 0.2 ML ACETONE ONCE): 96%, 72%, 25%, not calculated | tumour outcome (control, treated, inhibition, significance) (Carcinogen: 7-FORMYL-12-METHYLBENZ[A]ANTHRACENE, 13345-61-4, Dose [Inhibitor]: 100 UG IN 0.2 ML ACETONE ONCE 5 MIN BEFORE CARCINOGEN TREATMENT (STUDY DURATION: 31 WK), Strain/Sex: CD-1/FEMALE, Dose [Carcinogen]: 740 NMOL IN 0.2 ML ACETONE ONCE): 84%, 63%, 25%, not calculated | tumour outcome (control, treated, inhibition, significance) (Carcinogen: 7-HYDROXYMETHYL-12-METHYLBENZ[A]ANTHRACENE, 568-75-2, Dose [Inhibitor]: 100 UG IN 0.2 ML ACETONE ONCE 5 MIN BEFORE CARCINOGEN TREATMENT (STUDY DURATION: 31 WK), Strain/Sex: CD-1/FEMALE, Dose [Carcinogen]: 400 NMOL IN 0.2 ML ACETONE ONCE): 48%, 52%, -8%, not calculated | tumour outcome (control, treated, inhibition, significance) (Carcinogen: 12-BROMOMETHYL-7-METHYLBENZ[A]ANTHRACENE, 59230-81-8, Dose [Inhibitor]: 100 UG IN 0.2 ML ACETONE ONCE 5 MIN BEFORE CARCINOGEN TREATMENT (STUDY DURATION: 31 WK), Strain/Sex: CD-1/FEMALE, Dose [Carcinogen]: 600 NMOL IN 0.2 ML ACETONE ONCE): 87%, 74%, 15%, not calculated | tumour outcome (control, treated, inhibition, significance) (Carcinogen: BENZO[A]PYRENE, 50-32-8, Dose [Inhibitor]: 10 UG IN 0.2 ML ACETONE ONCE 5 MINUTES BEFORE CARCINOGEN TREATMENT (STUDY DURATION: 31 WK), Strain/Sex: CD-1/FEMALE, Dose [Carcinogen]: 400 NMOL IN 0.2 ML ACETONE ONCE): 90%, 90%, 0%, not calculated | tumour outcome (control, treated, inhibition, significance) (Carcinogen: BENZO[A]PYRENE, 50-32-8, Dose [Inhibitor]: 100 UG IN 0.2 ML ACETONE ONCE 5 MINUTES BEFORE CARCINOGEN TREATMENT (STUDY DURATION: 31 WK), Strain/Sex: CD-1/FEMALE, Dose [Carcinogen]: 400 NMOL IN 0.2 ML ACETONE ONCE): 90%, 80%, 11%, not calculated | tumour outcome (control, treated, inhibition, significance) (Carcinogen: BENZO[A]PYRENE, 50-32-8, Dose [Inhibitor]: 200 UG IN 0.2 ML ACETONE ONCE 5 MINUTES BEFORE CARCINOGEN TREATMENT (STUDY DURATION: 31 WK), Strain/Sex: CD-1/FEMALE, Dose [Carcinogen]: 400 NMOL IN 0.2 ML ACETONE ONCE): 90%, 77%, 14%, not calculated | tumour outcome (control, treated, inhibition, significance) (Carcinogen: DIBENZO[A,H]ANTHRACENE, 53-70-3, Dose [Inhibitor]: 0, 370 NMOL IN 0.2 ML ACETONE APPLIED 5 MIN PRIOR TO CARCINOGEN (STUDY DURATION: 21 WK), Strain/Sex: SENCAR/FEMALE, Dose [Carcinogen]: 200 NMOL IN 0.2 ML ACETONE ONCE): 100%, 77%, 23%, not calculated | tumour outcome (control, treated, inhibition, significance) (Carcinogen: DIBENZO[A,H]ANTHRACENE, 53-70-3, Dose [Inhibitor]: 0, 3700 NMOL IN 0.2 ML ACETONE APPLIED 5 MIN PRIOR TO CARCINOGEN (STUDY DURATION: 21 WK), Strain/Sex: SENCAR/FEMALE, Dose [Carcinogen]: 200 NMOL IN 0.2 ML ACETONE ONCE): 100%, 80%, 20%, not calculated
